Key:
Assay type in all cases: in vivo
[1] = system: Deroceras reticulatum (grey field slug); assay: Example 2: pot re-test, treated winter wheat seed with 5 adult slugs per pot, 7 days
Source text: Based on the results of the experiment described in Example 1, a selection was made from the various test numbers of that experiment for re-testing, partly to confirm the conclusions of that experiment and to test the unexpected outcome of some test compounds.
The selection of test numbers (Test No.) used in the present experiment relative to those of the experiment described in Example 1 is shown in Table 7.
The same seeds as described in Example 1 were sown in earthenware pots with an internal diameter of 20 cm and a height of 18 cm, filled with 7 cm of potting soil (Trio BV, Weesp, The Netherlands) and with a top 2 cm of white quartz sand. A total of 40 winter wheat seeds was placed in each pot, in a pattern of concentric circles on top of the quartz sand, the germ of the seed facing upwards. To each pot a total of 5 adult specimens of the test slug Deroceras reticulatum (grey field slug) were added. The pots were incubated at 18-19° C. with a relative humidity of ±95% and light regime of ±18 hours light/6 hours dark, without artificial lighting. The pots were not irrigated overhead. In total, 4 parallel tests were performed for each test.
The number of damaged seeds was, the number of plants present (germinated and not eaten or damaged by the slugs), the number of dead slugs and of the number of fecal pellets were determined after 2, 3 and 7 days following the addition of the slugs.
(§1) The data were statistically analysed by using F-tests (α=0.05) and pair-wise Student-tests.

[2] = system: Deroceras reticulatum (grey field slug); assay: Example 1: pot test, treated winter wheat seed with 5 adult slugs per pot, 14 days; conditions: for protection / slug controlling effect (conclusion): winter wheat seed treatment
Procedure: (§2) Winter wheat (Kampa race; thousand grain weight of 51 grams) was used in an experiment to test the efficacy of the compositions of the present inventions in relation to known molluscicidal compounds. The seeds were disinfected for soil and germ moulds with 2 ml of Beret Gold (comprising 25 g/l of the fungicide fludioxonil) per kg of seed.
(§3) Sepiret® was added to all dry disinfections, and is the coating that was added to all agents of which the formulation was not suitable for coating.
The seeds were sown in earthenware pots with an internal diameter of 20 cm and a height of 18 cm, filled with 7 cm of potting soil (Trio BV, Weesp, The Netherlands) and with a top 2 cm of white quartz sand. A total of 40 seeds was placed in each pot, in a pattern of concentric circles on top of the quartz sand, the germ facing upwards. To each pot a total of 5 adult specimens of the test slug Deroceras reticulatum (grey field slug) were added. The pots were incubated at ±15° C. with a relative humidity of ±90% and light regime of ±12 hours light/12 hours dark, without artificial lighting. The pots were not irrigated overhead. In total, 4 parallel tests were performed for each test.
Following the addition of the slugs, the number of damaged seeds was counted after 2, 3, 7, 10 and 14 days. The number of plants present (germinated and not eaten or damaged by the slugs) was determined 3, 7, 10 and 14 days after the start of the test. […] The number of dead slugs was counted 2, 3, 7, 10 and 14 days after the start of the test (but not removed). Finally, on days 3, 7, 10 and 14 after the start of the test, the number fecal pellets was counted.
as §1

[3] = system: Winter wheat (Kampa race) seeds; assay: Seed germination test of treated winter wheat seeds (rolled in paper); conditions: 3x50 seeds, 6 days at 22° C.
Procedure: as §2, §3
Table 2 provides an overview of the amounts of diluent water and Sepiret® used for treating the wheat seeds. Table 2 further provides the quality of the coating and the percentages of germinating seeds in a seed germination test. In this test, the percentage of germination of 3×50 seeds, rolled in paper, was determined after 6 days at 22° C. (continuously) and a 16 hours light regime.

[4] = Example 2, 10 ml formulated per kg seed, 2 days after sowing
[5] = Example 2, 10 ml formulated per kg seed, 3 days after sowing
[6] = Example 2, 10 ml formulated per kg seed, 7 days after sowing
[7] = 2 ml formulated per kg seed, 2 days after sowing
[8] = 2 ml formulated per kg seed, 3 days after sowing
[9] = 2 ml formulated per kg seed, 7 days after sowing
[10] = 2 ml formulated per kg seed, 10 days after sowing
[11] = 2 ml formulated per kg seed, 14 days after sowing
[12] = 10 ml formulated per kg seed, 2 days after sowing
[13] = 10 ml formulated per kg seed, 3 days after sowing
[14] = 10 ml formulated per kg seed, 7 days after sowing
[15] = 10 ml formulated per kg seed, 10 days after sowing
[16] = 10 ml formulated per kg seed, 14 days after sowing

abamectine
number of plants present relative to untreated ([1]; Example 2): no significantly different results | phytotoxic effect on the seeds ([1]; Example 2): phytotoxic effect on the seeds | result of seed treatment against slugs (conclusion) ([1]; Example 2): does not give the desired effect | percentage of damaged seeds after 7 days ([1]; Example 2, 10 ml formulated per kg seed): 31% | Mean number of damaged seeds per pot [1, 4]: 2.8 | Mean number of dead slugs per pot [1, 4]: 0 | Mean number of damaged seeds per pot [1, 5]: 6.0 | Mean number of dead slugs per pot [1, 5]: 0.3 | Mean number of damaged seeds per pot [1, 6]: 12.5 | Mean number of dead slugs per pot [1, 6]: 0.8 | number of damaged seeds relative to the untreated seed ([1]; Example 2, two days after the start): significant reduction in the number of damaged seeds | Mean number of fecal pellets per pot ([1]; dosage 10 ml, 2 days): 11 | Mean number of plants present per pot ([1]; dosage 10 ml, 2 days): 0.3 | Mean number of fecal pellets per pot ([1]; dosage 10 ml, 3 days): 30 | Mean number of plants present per pot ([1]; dosage 10 ml, 3 days): 1.3 | Mean number of fecal pellets per pot ([1]; dosage 10 ml, 7 days): 69 | Mean number of plants present per pot ([1]; dosage 10 ml, 7 days): 4.5 | number of utilizable plants after 7 days ([1]; dosage 10 ml, 7 days): 2.0 | number of utilizable plants after 14 days ([2]; 2 ml formulated per kg seed): 0.8 | percentage of damaged seeds after 14 days ([2]; 2 ml formulated per kg seed): 93% | Mean number of damaged seeds per pot [2, 7]: 3.8 | Mean number of dead slugs per pot [2, 7]: 0 | Mean number fecal pellets per pot [2, 8]: 43 | Mean number of damaged seeds per pot [2, 8]: 14.3 | Mean number of dead slugs per pot [2, 8]: 0 | Mean number of plants present per pot [2, 8]: 6.3 | Mean number fecal pellets per pot [2, 9]: 119 | Mean number of damaged seeds per pot [2, 9]: 35.8 | Mean number of dead slugs per pot [2, 9]: 0 | Mean number of plants present per pot [2, 9]: 0 | Mean number fecal pellets per pot [2, 10]: 133 | Mean number of damaged seeds per pot [2, 10]: 35.5 | Mean number of dead slugs per pot [2, 10]: 0.3 | Mean number of plants present per pot [2, 10]: 0.8 | Mean number fecal pellets per pot [2, 11]: 140 | Mean number of damaged seeds per pot [2, 11]: 37.0 | Mean number of dead slugs per pot [2, 11]: 0.3 | Mean number of plants present per pot [2, 11]: 0.8 | number of utilizable plants after 14 days ([2]; 10 ml formulated per kg seed): 9.0 | percentage of damaged seeds after 14 days ([2]; 10 ml formulated per kg seed): 61% | Mean number of damaged seeds per pot [2, 12]: 1.5 | Mean number of dead slugs per pot [2, 12]: 0.3 | Mean number fecal pellets per pot [2, 13]: 15 | Mean number of damaged seeds per pot [2, 13]: 3.3 | Mean number of dead slugs per pot [2, 13]: 0.5 | Mean number of plants present per pot [2, 13]: 3.8 | Mean number fecal pellets per pot [2, 14]: 89 | Mean number of damaged seeds per pot [2, 14]: 21.0 | Mean number of dead slugs per pot [2, 14]: 1.3 | Mean number of plants present per pot [2, 14]: 6.0 | Mean number fecal pellets per pot [2, 15]: 106 | Mean number of damaged seeds per pot [2, 15]: 23.8 | Mean number of dead slugs per pot [2, 15]: 1.3 | Mean number of plants present per pot [2, 15]: 8.8 | Mean number fecal pellets per pot [2, 16]: 114 | Mean number of damaged seeds per pot [2, 16]: 24.3 | Mean number of dead slugs per pot [2, 16]: 1.5 | Mean number of plants present per pot [2, 16]: 9.0 | damaged seeds relative to the untreated control ([2]; Example 1, 10 ml/kg, after 3, 7 and 14 days): significantly less damaged seeds | protection / slug controlling effect (conclusion) ([2]; Example 1, dosages tested): no sufficient protection to the plants | Percentage germinated ([3]; 2 ml formulated per kg seed): 47% | Percentage germinated ([3]; 10 ml formulated per kg seed): 2%

CC=C(C)C(=O)OC1CC(OC(C)=O)C2(C(=O)OC)COC3C2C12COC(O)(C(=O)OC)C2C(C)(C12OC1(C)C1CC2OC2OC=CC21O)C3O (stereo not shown) [azadirachtine]
number of utilizable plants after 14 days ([2]; 2 ml formulated per kg seed): 0.8 | percentage of damaged seeds after 14 days ([2]; 2 ml formulated per kg seed): 95% | Mean number of damaged seeds per pot [2, 7]: 5.8 | Mean number of dead slugs per pot [2, 7]: 0.3 | Mean number fecal pellets per pot [2, 8]: 62 | Mean number of damaged seeds per pot [2, 8]: 20.8 | Mean number of dead slugs per pot [2, 8]: 0.3 | Mean number of plants present per pot [2, 8]: 5.3 | Mean number fecal pellets per pot [2, 9]: 106 | Mean number of damaged seeds per pot [2, 9]: 37.0 | Mean number of dead slugs per pot [2, 9]: 0.3 | Mean number of plants present per pot [2, 9]: 1.0 | Mean number fecal pellets per pot [2, 10]: 139 | Mean number of damaged seeds per pot [2, 10]: 37.0 | Mean number of dead slugs per pot [2, 10]: 0.3 | Mean number of plants present per pot [2, 10]: 1.3 | Mean number fecal pellets per pot [2, 11]: 156 | Mean number of damaged seeds per pot [2, 11]: 38.0 | Mean number of dead slugs per pot [2, 11]: 0.5 | Mean number of plants present per pot [2, 11]: 0.8 | number of utilizable plants after 14 days ([2]; 10 ml formulated per kg seed): 2.3 | percentage of damaged seeds after 14 days ([2]; 10 ml formulated per kg seed): 86% | Mean number of damaged seeds per pot [2, 12]: 4.0 | Mean number of dead slugs per pot [2, 12]: 0 | Mean number fecal pellets per pot [2, 13]: 32 | Mean number of damaged seeds per pot [2, 13]: 13.0 | Mean number of dead slugs per pot [2, 13]: 0 | Mean number of plants present per pot [2, 13]: 4.8 | Mean number fecal pellets per pot [2, 14]: 93 | Mean number of damaged seeds per pot [2, 14]: 30.5 | Mean number of dead slugs per pot [2, 14]: 0 | Mean number of plants present per pot [2, 14]: 2.8 | Mean number fecal pellets per pot [2, 15]: 130 | Mean number of damaged seeds per pot [2, 15]: 32.5 | Mean number of dead slugs per pot [2, 15]: 0.3 | Mean number of plants present per pot [2, 15]: 3.3 | Mean number fecal pellets per pot [2, 16]: 138 | Mean number of damaged seeds per pot [2, 16]: 34.5 | Mean number of dead slugs per pot [2, 16]: 0.3 | Mean number of plants present per pot [2, 16]: 3.8 | differences in the number of damaged seeds ([2]; Example 1, dosages tested): did not result in significant differences | protection / slug controlling effect (conclusion) ([2]; Example 1, dosages tested): no sufficient protection to the plants | Percentage germinated ([3]; 2 ml formulated per kg seed): 90% | Percentage germinated ([3]; 10 ml formulated per kg seed): 65%
